Drawing on patent publication US20210369853A1, “TARGETED PROTEASE DEGRADATION PLATFORM” (EUBULUS BIOTHERAPEUTICS INC., priority 2018, published 2021), this text covers EC50 for 31 molecules.

Each structure is given as a SMILES string.

The first test concerns Human Monocytic Leukemia MV4-11. In words: Cell proliferation experiment (Alarm blue, 72 h, EC50). It counts as cell-based. Particulars: Homo sapiens, MV4-11, MV4;11 cells. As to the method: (2.1) Cell Proliferation Experiment:
Reagents: RPMI-1640 medium, McCoy's 5A medium, IMDM medium, MEM medium, L-15 medium, fetal bovine serum, Penicillin-Streptomycin double antibody, trypsin, etc., 2-mercaptoethanol, NEAA, pyruvate, etc.
The cells were cultured in conventional ways, and the cells should be passed at least for at least 2 generations before plating. Cells at the logarithmic growth phase are collected, prepared into single cell suspensions and counted. The concentration of cells was adjusted to the desired concentration, and cells were inoculated into a 96-well cell culture plate at 100 μl per well. 100 μL of complete medium of the test compound were added to each well, set up 2 duplicates for each concentration, and diluted with a 5-fold gradient, and continue to culture for 72 h. All cells were subjected to EC50 test for corresponding samples.
The fluorescence intensity of each well was detected using the Alarm blue method, and EC50 was calculated.
EC50 was calculated according to the following formula:
Y=Max+(Min−Max)/[1+(X/EC50)×Slope]
wherein Min, Max and Slope represent the minimum, maximum and slope respectively.
`CC[C@@H]1C(=O)N(C)c2cnc(Nc3ccc(C(=O)NCCNCCOCCOCCOCCC(=O)Nc4cccc5c4CN(C4CCC(=O)NC4=O)C5=O)cc3OC)nc2N1C1CCCC1` (stereo partly shown) [UB-180820]: the EC50 fell in the range of 10 to 100 nM. Turning to `CC[C@@H]1c2c(C#N)ncn2-c2cnc(Nc3ccc(C(=O)NCCOCCOCCOCCNCCC(=O)Nc4cccc5c4CN(C4CCC(=O)NC4=O)C5=O)cc3OC)nc2N1C1CCCC1` (stereo partly shown) [UB-180700], the EC50 was 100 to 1000 nM.

The molecule `CC[C@@H]1C(=O)N(C)c2cnc(Nc3ccc(C(=O)NC4CCN(CCCCC(=O)Nc5cccc6c5CN(C5CCC(=O)NC5=O)C6=O)CC4)cc3OC)nc2N1C1CCCC1` (stereo partly shown) [UB-180596] displayed an EC50 of 10 to 100 nM.

`Cc1ncsc1-c1ccc(CNC(=O)[C@@H]2C[C@@H](O)CN2C(=O)[C@@H](NC(=O)CCCNC(=O)c2ccc(Nc3ncc4c(n3)-c3ccc(Cl)cc3C(c3c(F)cccc3F)=NC4)cc2)C(C)(C)C)cc1` [UB-180505] yielded an EC50 of 100 to 1000 nM. The same measure, in the same setting: with `Cc1ncsc1-c1ccc(CNC(=O)[C@@H]2C[C@@H](O)CN2C(=O)[C@@H](NC(=O)CCNC(=O)[C@]2(Cc3cccc(Nc4nccs4)n3)CC[C@@H](Oc3cccc(Cl)c3F)CC2)C(C)(C)C)cc1` [UB-180614] the figure was above 1000 nM; with `CC[C@@H]1C(=O)N(C)c2cnc(Nc3ccc(C(=O)NCC(=O)Nc4cccc5c4CN(C4CCC(=O)NC4=O)C5=O)cc3OC)nc2N1C1CCCC1` (stereo partly shown) [UB-180570], above 1000 nM. Molecule `CC[C@@H]1C(=O)N(C)c2cnc(Nc3ccc(C(=O)NC4CCN(CCNCCCCC(=O)Nc5cccc6c5CN(C5CCC(=O)NC5=O)C6=O)CC4)cc3OC)nc2N1Cc1ccc(Br)cc1` (stereo partly shown) [UB-180685] showed an EC50 of 10 to 100 nM. With `CC[C@@H]1C(=O)N(C)c2cnc(Nc3ccc(C(=O)NCCOCCOCCOCCNCCC(=O)Nc4cccc5c4CN(C4CCC(=O)NC4=O)C5=O)cc3OC)nc2N1C(C)C` (stereo partly shown) [UB-180710], the EC50 was in the range of 10 to 100 nM. In turn, `COc1cc(C(=O)NCCOCCNCCCCCCC(=O)Nc2cccc3c2CN(C2CCC(=O)NC2=O)C3=O)ccc1Nc1ncc2c(n1)N(Cc1ccc(Br)cc1)CC(C)(C)C(=O)N2C` (stereo not shown) [UB-180672] displayed an EC50 of 100 to 1000 nM. `CC[C@@H]1c2c(C#N)ncn2-c2cnc(Nc3ccc(C(=O)NCCCNc4cccc5c4C(=O)N(C4CCC(=O)NC4=O)C5=O)cc3OC)nc2N1C1CCCC1` (stereo partly shown) [UB-180593] registered an EC50 of 100 to 1000 nM.

In turn, `O=C1CCC(N2Cc3c(NC(=O)CCNCCOC4CCN(CCOCCNC(=O)c5ccc(Nc6ncc7c(n6)-c6ccc(Cl)cc6C(c6c(F)cccc6F)=NC7)cc5)CC4)cccc3C2=O)C(=O)N1` (stereo not shown) [UB-180821] gave an EC50 above 1000 nM.

On to `Cc1ncsc1-c1ccc(CNC(=O)[C@@H]2C[C@@H](O)CN2C(=O)[C@@H](NC(=O)COCCNC(=O)[C@]2(Cc3cccc(Nc4nccs4)n3)CC[C@@H](Oc3cccc(Cl)c3F)CC2)C(C)(C)C)cc1` [UB-180578], for which the EC50 is above 1000 nM. `O=C1CCC(N2Cc3c(NC(=O)CCNCCn4cc(CNC(=O)c5ccc(Nc6ncc7c(n6)-c6ccc(Cl)cc6C(c6c(F)cccc6F)=NC7)cc5)nn4)cccc3C2=O)C(=O)N1` (stereo not shown) [UB-180726] showed an EC50 of 100 to 1000 nM. With `CC[C@@H]1C(=O)N(C)c2cnc(Nc3ccc(C(=O)NCCOCCOCCOCCN(CCC(=O)Nc4cccc5c4CN(C4CCC(=O)NC4=O)C5=O)C(=O)OCc4ccc(NC(=O)[C@H](CCCNC(N)=O)NC(=O)[C@@H](NC(=O)CCCCCN5C(=O)C=CC5=O)C(C)C)cc4)cc3OC)nc2N1C1CCCC1` (stereo partly shown) [UB-180709], the EC50 fell in the range of 100 to 1000 nM. Still for that read-out and setting: with `O=C1CCC(N2Cc3c(NC(=O)CNCCOCCN4CCC(NC(=O)[C@]5(Cc6cccc(Nc7nccs7)n6)CC[C@@H](Oc6cccc(Cl)c6F)CC5)CC4)cccc3C2=O)C(=O)N1` (stereo partly shown) [UB-180736] the figure was 100 to 1000 nM; with `CC[C@@H]1c2c(C#N)ncn2-c2cnc(Nc3ccc(C(=O)NC4CCN(CCCCCOCC(=O)N[C@H](C(=O)N5C[C@H](O)C[C@H]5C(=O)NCc5ccc(-c6scnc6C)cc5)C(C)(C)C)CC4)cc3OC)nc2N1C1CCCC1` [UB-180597], above 1000 nM; with `Cc1ncsc1-c1ccc(CNC(=O)[C@@H]2C[C@@H](O)CN2C(=O)[C@@H](NC(=O)CCOCCOCCOCCOCCNC(=O)[C@]2(Cc3cccc(Nc4nccs4)n3)CC[C@@H](Oc3cccc(Cl)c3F)CC2)C(C)(C)C)cc1` [UB-180576], 100 to 1000 nM.

Turning to `CC[C@@H]1C(=O)N(C)c2cnc(Nc3ccc(C(=O)NCc4cn(CCNCCOCC(=O)Nc5cccc6c5CN(C5CCC(=O)NC5=O)C6=O)nn4)cc3OC)nc2N1Cc1ccc(C#N)s1` (stereo partly shown) [UB-180765], the EC50 lay within 10 to 100 nM. As for `CC[C@@H]1C(=O)N(C)c2cnc(Nc3ccc(C(=O)NC4CCN(CCNCCOCC(=O)Nc5cccc6c5CN(C5CCC(=O)NC5=O)C6=O)CC4)cc3OC)nc2N1C(C)C` (stereo partly shown) [UB-180712], the EC50 lay in the range of 10 to 100 nM.

Molecule `Cc1ncsc1-c1ccc(CNC(=O)[C@@H]2C[C@@H](O)CN2C(=O)[C@@H](NC(=O)CCOCCCOCCOCCNC(=O)[C@]2(Cc3cccc(Nc4nccs4)n3)CC[C@@H](Oc3cccc(Cl)c3F)CC2)C(C)(C)C)cc1` [UB-180600] had an EC50 of 100 to 1000 nM. The molecule `CC[C@@H]1C(=O)N(C)c2cnc(Nc3ccc(C(=O)NCCNCCC(=O)Nc4cccc5c4CN(C4CCC(=O)NC4=O)C5=O)cc3OC)nc2N1Cc1ccc(Br)cc1` (stereo partly shown) [UB-180683] came in with an EC50 above 1000 nM.

`CC[C@@H]1C(=O)N(C)c2cnc(Nc3ccc(C(=O)NCCOCCNCC(=O)Nc4cccc5c4CN(C4CCC(=O)NC4=O)C5=O)cc3OC)nc2N1C1CCCC1` (stereo partly shown) [UB-180705] had an EC50 of 10 to 100 nM. `O=C1CCC(N2Cc3c(NC(=O)CCOCCOCCOCCNCCNC(=O)[C@]4(Cc5cccc(Nc6nccs6)n5)CC[C@@H](Oc5cccc(Cl)c5F)CC4)cccc3C2=O)C(=O)N1` (stereo partly shown) [UB-180797] came in with an EC50 above 1000 nM.

Consider `O=C1CCC(N2Cc3c(NC(=O)COCCNCCOCCOCCOCCNC(=O)c4ccc(Nc5ncc6c(n5)-c5ccc(Cl)cc5C(c5c(F)cccc5F)=NC6)cc4)cccc3C2=O)C(=O)N1` (stereo not shown) [UB-180792], for which the EC50 fell in the range of 100 to 1000 nM.

Molecule `O=C1CCC(N2Cc3c(NC(=O)CCCCCNCCOCCOCCOCCNC(=O)[C@]4(Cc5cccc(Nc6nccs6)n5)CC[C@@H](Oc5cccc(Cl)c5F)CC4)cccc3C2=O)C(=O)N1` (stereo partly shown) [UB-180771] came in with an EC50 of 100 to 1000 nM. Take `O=C1CCC(N2Cc3c(NC(=O)CCOCCOCCOCCNCCOCCNC(=O)c4ccc(Nc5ncc6c(n5)-c5ccc(Cl)cc5C(c5c(F)cccc5F)=NC6)cc4)cccc3C2=O)C(=O)N1` (stereo not shown) [UB-180803]: the EC50 is 100 to 1000 nM. `CC[C@@H]1C(=O)N(C)c2cnc(Nc3ccc(C(=O)NCCNCCC(=O)Nc4cccc5c4CN(C4CCC(=O)NC4=O)C5=O)cc3OC)nc2N1C1CCCC1` (stereo partly shown) [UB-180682] displayed an EC50 of 10 to 100 nM.

`CC[C@@H]1C(=O)N(C)c2cnc(Nc3ccc(C(=O)NC4CCN(CCOCCN(C=O)CC(=O)Nc5cccc6c5CN(C5CCC(=O)NC5=O)C6=O)CC4)cc3OC)nc2N1C1CCCC1` (stereo partly shown) [UB-180834]: the EC50 lay within 10 to 100 nM.

Still in this test, the particulars now being: MV4;11 cells.
The molecule `O=C1CCC(N2Cc3c(NC(=O)CNCCOCCN4CCN(CCNC(=O)[C@]5(Cc6cccc(Nc7nccs7)n6)CC[C@@H](Oc6cccc(Cl)c6F)CC5)CC4)cccc3C2=O)C(=O)N1` (stereo partly shown) [UB-180812] gave an EC50 of 100 to 1000 nM.

`O=C1CCC(N2Cc3c(NC(=O)CCNCCOCCn4cc(CNC(=O)[C@]5(Cc6cccc(Nc7nccs7)n6)CC[C@@H](Oc6cccc(Cl)c6F)CC5)nn4)cccc3C2=O)C(=O)N1` (stereo partly shown) [UB-180739] gave an EC50 above 1000 nM. Still for that read-out and setting: next, `O=C1CCC(N2Cc3c(NC(=O)CCNCCOCCn4cc(CNC(=O)c5ccc(Nc6ncc7c(n6)-c6ccc(Cl)cc6C(c6c(F)cccc6F)=NC7)cc5)nn4)cccc3C2=O)C(=O)N1` (stereo not shown) [UB-180748]: above 1000 nM.

By EC50 is commonly meant the concentration giving half of the maximal effect. A lower EC50 goes with greater potency.
